US9951183B2, “Amphiphilic blockcopolymers comprising reduction sensitive biodegradable polyesteramides” (DSM IP Assets B.V., priority 2014, dated 2018)

How the values were obtained:
HeLa cells [1] = test: Cellular uptake and intracellular release of DOX (CLSM); assay type: cell-based; details: DOX 12.5 μg/mL
Protocol: HeLa cells are plated on microscope slides in a 24-well plate (5×10^4 cells/well) under 5% CO2 atmosphere at 37° C. using Dulbecco's modified Eagle's medium (DMEM) supplemented with 10% fetal bovine serum, 1% L-glutamine, antibiotics penicillin (100 IU/mL), and streptomycin (100 μg/mL). […] After incubation at 37° C. and a humidified 5% CO2-containing atmosphere for 0.5, 2 or 4 h, the culture media are removed and the cells on microscope plates are washed three times with PBS. The cells are then fixed with 4% formaldehyde for 15 min and washed with PBS 3 times. The cell nuclei are stained with 4′,6-diamidino-2-phenylindole (DAPI, blue) for 15 min and washed with PBS 3 times.

HeLa cells [2] = test: Cell viability MTT assay, HeLa; assay type: cell-based; details: DOX 12.5 μg/mL
Protocol: HeLa and MCF-7 cells are plated in a 96-well plate (1×10^4 cells/well) using DMEM medium supplemented with 10% fetal bovine serum, 1% L-glutamine, antibiotics penicillin (100 IU/mL), and streptomycin (100 μg/mL) and incubation for 24 h. […] Then 3-(4,5-dimethylthiazol-2-yl)-2,5-diphenyl tetrazoliumbromide (MTT) solution in PBS (10 μL, 5 mg/mL) are added and incubated for another 4 h. The medium is aspirated, the MTT-formazan generated by live cells is dissolved in 150 μL of DMSO, and the absorbance at a wavelength of 490 nm of each well is measured using a microplate reader. The relative cell viability (%) is determined by comparing the absorbance at 490 nm with control wells containing only cell culture medium. Data are presented as average±SD (n=4).

Q: For `COc1cccc2c1C(=O)c1c(O)c3c(c(O)c1C2=O)C[C@@](O)(C(=O)CO)C[C@@H]3O[C@H]1C[C@H](N)[C@H](O)[C@H](C)O1` [free DOX, doxorubicin], which “intracellular distribution of DOX” value (HeLa cells [1]) is on record?
A: mainly accumulated in cell nucleus

Q: What about the cell viability (HeLa cells [2]; 24 h) of the same compound?
A: 31.8%

Q: And the cell viability (HeLa cells [2]; 48 h)?
A: 19.1%
